From BigSolDB 2.1

CCCNS(=O)(=O)Nc1ncnc(OCCOc2ncc(Br)cn2)c1-c1ccc(Br)cc1
solubility (mole fraction)
Conditions | 273.15 K | 278.15 K | 283.15 K | 288.15 K | 293.15 K | 298.15 K | 303.15 K | 308.15 K | 313.15 K
in ethanol | 6.4e-05 | 8.8e-05 | 0.000117 | 0.000151 | 0.000188 | 0.000234 | 0.000293 | 0.000365 | 0.000458
in ethyl acetate | 0.00338 | 0.00406 | 0.00483 | 0.00577 | 0.00681 | 0.00793 | 0.00921 | 0.0107 | 0.0122
in isopropanol | 4.7e-05 | 5.9e-05 | 7.5e-05 | 9.2e-05 | 0.000114 | 0.000141 | 0.000172 | 0.000206 | 0.000246
in methanol | 7.6e-05 | 0.000109 | 0.000145 | 0.000186 | 0.000232 | 0.000284 | 0.000358 | 0.000463 | 0.000602
